The target of assay [1] is T1, Thrombin receptor (PAR-1) (Homo sapiens, UniProt P25116).
T1 construct: CHRF membranes (Jones, Biochim. Biophys. Acta 1992, 1136, 272) are thawed from −70° C; endogenous in cells; host or cells: CHRF cell membranes
T1 sequence (P25116 22-425): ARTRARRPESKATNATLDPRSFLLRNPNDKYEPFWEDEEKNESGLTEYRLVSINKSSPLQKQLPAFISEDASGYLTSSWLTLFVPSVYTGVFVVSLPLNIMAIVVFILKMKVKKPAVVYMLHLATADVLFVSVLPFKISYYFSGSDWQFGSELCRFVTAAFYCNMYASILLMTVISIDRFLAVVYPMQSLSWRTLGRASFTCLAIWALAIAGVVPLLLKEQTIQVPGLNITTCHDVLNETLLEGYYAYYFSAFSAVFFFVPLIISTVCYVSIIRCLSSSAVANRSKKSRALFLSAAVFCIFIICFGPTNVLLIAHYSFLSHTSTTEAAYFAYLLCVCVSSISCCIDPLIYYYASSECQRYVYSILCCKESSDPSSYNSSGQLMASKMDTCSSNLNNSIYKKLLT
As to the kind of experiment: Thrombin receptor (PAR-1) binding assay. The settings on record: CHRF membranes; tritiated 721-40 radioligand; read-out: IC50 (μM) Thr recptr Bdg. Here is the method: In Vitro Thrombin Receptor Binding Assay
CHRF membranes (Jones, Biochim. Biophys. Acta 1992, 1136, 272) are thawed from −70° C., centrifuged at maximum speed for 5 min, washed twice with binding buffer (50 mM HEPES containing 5 mM MgCl2 and 0.1% BSA), and re-suspended in binding buffer ([…]). 100 μL of membranes are added to the 24-Wallac plates and delivered to the Tomtech apparatus. In a typical experiment, 6 μL of samples (from a 125 μg/mL intermediary plate, 20% DMSO) and 44 μL buffer are delivered to the plates (final conc. of compounds is 3.7 μg/mL, 0.6% DMSO). Similarly, 6 μL 20% DMSO and 44 μL buffer are delivered to both column 1 (NSB) and column 12 (TB). 10 μL Ser-pFPhe-Har-Leu-Har-Lys-Tyr-NH2, SEQ ID NO 1, (721-40; 500 μM in deionized water) is added to column 1. 50 μL tritiated 721-40 (specific activity 46 Ci/mmol) is added to all the wells. The plates are mixed well for 20 seconds, incubated for 30 min, and then harvested with 10 mM HEPES/138 mM NaCl using the Skatron harvester. The filters (GF/C Brandel FPXLR 296) are presoaked 3 h in 0.5% polyethylenimine in HEPES/0.1M N-acetylglucosamine) are set in saran wrap and dried for 3 min in the microwave, and placed in sample bags (Wallac 1450-432). 4.5 mL scintillation fluid (Wallac, Betaplate Scint 1205-440) is added. The bags are sealed, placed in filter cassettes (Wallac 1450-104), and analyzed on the microbeta counter.

Assay [2] concerns gel-filtered platelets (thrombin-stimulated aggregation). As to the kind of experiment: Thrombin-induced gel-filtered platelet aggregation assay. It counts as cell-based. The settings on record: human platelets, read-out: IC50 (μM) Thr GFP Aggr. Here is the method: In Vitro Inhibition of Thrombin-Induced Gel-Filtered Platelet Aggregation Assay
The percentage of platelet aggregation is calculated as an increase in light transmission of compound-treated platelet concentrate vs. control-treated platelet concentrate. Human blood is obtained from drug free, normal donors in tubes containing 0.13M sodium citrate. Platelet rich plasma (PRP) is collected by centrifugation of whole blood at 200×g for 10 min at 25° C. The PRP (5 mL) is gel filtered through Sepharose 2B (bed volume 50 mL), and the platelet count is adjusted to 2×10^7 platelets per sample. The following constituents are added to a siliconized cuvette: concentrated platelet filtrate and Tyrode's buffer (0.14M NaCl, 0.0027M KCl, 0.012M NaHCO3, 0.76 mM Na2HPO4, 0.0055M glucose, 2 mg/mL BSA and 5.0 mM HEPES @ pH 7.4) in an amount equal to 350 μL, 50 μL of 20 mM calcium and 50 μL of the test compound. Aggregation is monitored in a BIODATA aggregometer for the 3 min following the addition of agonist (thrombin 50 μL of 1 unit/mL).

As usually defined, the IC50 is the concentration needed to halve the response being measured. With `NCC[C@H](NC(=O)[C@H](Cc1ccc(F)c(F)c1)NC(=O)Nc1ccc2c(c1)n(Cc1c(Cl)cccc1Cl)c(=O)n2CCN1CCCC1)C(=O)NCc1ccccc1` [Compound 1], the concentration for half-maximal inhibition (IC50) in assay [1] came out at 1.6 µM; in assay [2], 0.39 µM.

With `Cc1ccccc1Cn1c(=O)n(CCN2CCCC2)c2cc(NC(=O)N[C@@H](Cc3ccc(F)c(F)c3)C(=O)N[C@@H](CCN)C(=O)NCc3ccccc3)ccc21` [Compound 2], the IC50 is 3 µM in assay [1] and 7 µM in assay [2].

Consider `Cc1ccccc1Cn1c(=O)n(CCN(C)C)c2cc(NC(=O)N[C@@H](Cc3ccc(F)c(F)c3)C(=O)N[C@@H](CCN)C(=O)NCc3ccccc3)ccc21` [Compound 3], for which the half-inhibitory concentration (IC50) is 1.9 µM in assay [1] and 7.7 µM in assay [2].

Regarding `Cc1ccccc1Cn1c(=O)n(CCN(C)C)c2ccc(NC(=O)N[C@@H](Cc3ccc(F)c(F)c3)C(=O)N[C@@H](CCN)C(=O)NCc3ccccc3)cc21` [Compound 4], the IC50 in assay [1] came out at 0.7 µM; in assay [2] it was 0.23 µM.

`Cc1ccccc1Cn1c(=O)n(CCN2CCCC2)c2ccc(NC(=O)N[C@@H](Cc3ccc(F)c(F)c3)C(=O)N[C@@H](CCN)C(=O)NCc3ccccc3)cc21` [Compound 5]: the IC50 in assay [1] was determined as 0.4 µM; in assay [2], 0.28 µM.

As to `NCC[C@H](NC(=O)[C@H](Cc1ccc(F)c(F)c1)NC(=O)Nc1ccc2c(c1)n(Cc1ccc(F)cc1)c(=O)n2CCN1CCCC1)C(=O)NCc1ccccc1` [Compound 6], the IC50 was determined as 0.6 µM in assay [1] and 6 µM in assay [2].

As for `NCC[C@H](NC(=O)[C@H](Cc1ccc(F)c(F)c1)NC(=O)Nc1ccc2c(c1)n(CCN1CCCC1)c(=O)n2Cc1c(Cl)cccc1Cl)C(=O)NCc1ccccc1` [Compound 7], the figures for the concentration for half-maximal inhibition (IC50) in assay [1] and in assay [2] were 1.7 µM and 5.5 µM, respectively.

For `NCCNC(=O)[C@H](Cc1ccncc1)NC(=O)[C@H](Cc1ccc(F)c(F)c1)NC(=O)Nc1ccc2c(c1)n(Cc1ccc(F)cc1)c(=O)n2CCN1CCCC1` [Compound 8], the 50% inhibitory concentration (IC50) in assay [1] worked out at 0.5 µM; in assay [2], 5.8 µM.

For the origin of these results see patent publication US6943149B2, “Benzimidazolone peptidomimetics as thrombin receptor antagonists” (Ortho McNeil Pharmaceutical, Inc., priority 1999, dated 2005).
